The values below come from patent publication US8748461B2, “Metalloenzyme inhibitor compounds” (Viamet Pharmaceuticals, Inc., priority 2011, dated 2014).

Converted amounts (≈) assume the structure as drawn. Where only a bound is given, the exact number is not on record here.

The test system of assay [1] is Septoria tritici (ATCC 26517). Nature of the assay: Minimum Inhibitory Concentration (MIC) vs. Septoria tritici. The settings on record: Zymoseptoria tritici, ATCC26517, 168 h; 50% reduction in growth of S. tritici; 22° C., seven days; read-out: Septoria Rating (MIC). It counts as cell-based. The gist of the method: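 Growth inhibition of S. tritici by CLSI-based filamentous-fungus microdilution, 2-fold series 16 to 0.016 μg/mL in RPMI-1640/MOPS with 2% DMSO. Inoculum approximately 5×10^4 cfu/mL; plates incubated 22° C, seven days, dark, unshaken.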

Assay [2] has as its system Puccinia recondita tritici = Puccinia triticina. Nature of the assay: Fungicidal activity vs. leaf rust on wheat plants. Type of assay: in vivo. As to conditions: 50 ppm spray on wheat (Yuma), inoculated the following day, evaluated 7-9 days later; read-out: Puccinia Rating (% Disease Control @ 50 ppm). The gist of the method: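 Wheat seedlings were sprayed to wetness with compound at 50 ppm in 10% acetone/Triton X100 water, at about 1500 L/ha. They were inoculated with P. recondita tritici spores the following day and held overnight at high humidity before greenhouse growth. Disease severity was rated 7-9 days later on a rating scale.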

On to `OC(Cn1cnnn1)(c1ccc(F)cc1F)C(F)(F)c1ccc(Oc2ccc(/C=N/OCc3ccccc3)cn2)cn1` (centres unmarked) [Compound 103, (E)-6-((6-(2-(2,4-difluorophenyl)-1,1-difluoro-2-hydroxy-3-(1H-tetrazol-1-yl)propyl)pyridin-3-yl)oxy)nicotinaldehyde O-benzyl oxime], for which the MIC – broadly, the lowest concentration that inhibits growth of the organism – in assay [1] was in the range of 0.5 to 1.5 µg/mL (≈ 0.863 to 2.59 µM). Moreover, the pest or weed control at 50 ppm in assay [2] lay within 60 to 79%.

With `OC(Cn1cnnn1)(c1ccc(F)cc1F)C(F)(F)c1ccc(Oc2ncc(C(F)(F)F)cc2F)cn1` (centres unmarked) [Compound 104, 2-(2,4-difluorophenyl)-1,1-difluoro-1-(5-((3-fluoro-5-(trifluoromethyl)pyridin-2-yl)oxy)pyridin-2-yl)-3-(1H-tetrazol-1-yl)propan-2-ol], the MIC in assay [1] was not above 0.5 µg/mL. In assay [2], the pest or weed control at 50 ppm was 80 to 100%.

For the molecule `N#Cc1ccc(COc2ccc(C(F)(F)C(O)(Cn3cnnn3)c3ccc(Cl)cc3F)nc2)cc1` (centres unmarked) [Compound 55, 4-(((6-(2-(4-Chloro-2-fluorophenyl)-1,1-difluoro-2-hydroxy-3-(1H-tetrazol-1-yl)propyl)pyridin-3-yl)oxy)methyl)benzonitrile], in assay [1], the minimum inhibitory concentration (MIC) is not above 0.5 µg/mL. In addition, the pest or weed control at 50 ppm in assay [2] is 80 to 100%.

`OC(Cn1cnnn1)(c1ccc(F)cc1F)C(F)(F)c1ccc(OCc2ccncc2)cn1` (centres unmarked) [Compound 118, 2-(2,4-difluorophenyl)-1,1-difluoro-1-(5-(pyridin-4-ylmethoxy)pyridin-2-yl)-3-(1H-tetrazol-1-yl)propan-2-ol]: the MIC in assay [1] is not above 0.5 µg/mL. Also, in assay [2], the pest or weed control at 50 ppm is less than 40%.

Turning to `OC(Cn1cnnn1)(c1ccc(F)cc1F)C(F)(F)c1ccc(Oc2cccc(F)c2)cn1` (centres unmarked) [Compound 77, 2-(2,4-Difluorophenyl)-1,1-difluoro-1-(5-(3-fluorophenoxy)pyridin-2-yl)-3-(1H-tetrazol-1-yl)propan-2-ol], the MIC in assay [1] was not above 0.5 µg/mL. In assay [2], the pest or weed control at 50 ppm lay in the range of 60 to 79%.

Consider `N#Cc1ccc(COc2ccc(C(F)(F)C(O)(Cn3cnnn3)c3ccc(F)cc3F)nc2)s1` (centres unmarked) [Compound 73, 5-(((6-(2-(2,4-Difluorophenyl)-1,1-difluoro-2-hydroxy-3-(1H-tetrazol-1-yl)propyl)pyridin-3-yl)oxy)methyl)thiophene-2-carbonitrile], for which the MIC in assay [1] is not above 0.5 µg/mL. For the same molecule, the pest or weed control at 50 ppm in assay [2] lay within 80 to 100%.

As for `N#Cc1ccc(F)c(COc2ccc(C(F)(F)C(O)(Cn3cnnn3)c3ccc(F)cc3F)nc2)c1` (centres unmarked) [Compound 59, 3-(((6-(2-(2,4-Difluorophenyl)-1,1-difluoro-2-hydroxy-3-(1H-tetrazol-1-yl)propyl)pyridin-3-yl)oxy)methyl)-4-fluorobenzonitrile], the MIC in assay [1] was not above 0.5 µg/mL. The pest or weed control at 50 ppm in assay [2] lay in the range of 80 to 100%.

For `OC(Cn1cnnn1)(c1ccc(F)cc1F)C(F)(F)c1ccc(OCC(F)(F)c2ccc(OC(F)F)cc2)cn1` (centres unmarked) [Compound 120, 1-(5-(2-(4-(difluoromethoxy)phenyl)-2,2-difluoroethoxy)pyridin-2-yl)-2-(2,4-difluorophenyl)-1,1-difluoro-3-(1H-tetrazol-1-yl)propan-2-ol], the MIC in assay [1] is not above 0.5 µg/mL. In addition, in assay [2], the pest or weed control at 50 ppm was 80 to 100%.

In the case of `O=Cc1ccc(Oc2ccc(C(F)(F)C(O)(Cn3cnnn3)c3ccc(F)cc3F)nc2)nc1` (centres unmarked) [Compound 101, 6-((6-(2-(2,4-difluorophenyl)-1,1-difluoro-2-hydroxy-3-(1H-tetrazol-1-yl)propyl)pyridin-3-yl)oxy)nicotinaldehyde], the MIC in assay [1] was more than 4 µg/mL. Also, the pest or weed control at 50 ppm in assay [2] was less than 40%.

`N#Cc1cccc(Oc2ccc(C(F)(F)C(O)(Cn3cnnn3)c3ccc(F)cc3F)nc2)c1` (centres unmarked) [Compound 78, 3-((6-(2-(2,4-Difluorophenyl)-1,1-difluoro-2-hydroxy-3-(1H-tetrazol-1-yl)propyl)pyridin-3-yl)oxy)benzonitrile]: in assay [1], the MIC is not above 0.5 µg/mL. For the same molecule, in assay [2], the pest or weed control at 50 ppm lay within 80 to 100%.

Consider `N#Cc1ccc(Oc2ccc(C(F)(F)C(O)(Cn3cnnn3)c3ccc(Cl)cc3F)nc2)cc1` (centres unmarked) [Compound 79, 4-((6-(2-(4-Chloro-2-fluorophenyl)-1,1-difluoro-2-hydroxy-3-(1H-tetrazol-1-yl)propyl)pyridin-3-yl)oxy)benzonitrile], for which, in assay [1], the MIC was not above 0.5 µg/mL. For the same molecule, in assay [2], the pest or weed control at 50 ppm lay in the range of 80 to 100%.

Turning to `N#Cc1ccc(COc2ccc(C(F)(F)C(O)(Cn3cnnn3)c3ccc(F)cc3F)nc2)cc1` (centres unmarked) [Compound 9, 4-(((6-(2-(2,4-Difluorophenyl)-1,1-difluoro-2-hydroxy-3-(1H-tetrazol-1-yl)propyl)pyridin-3-yl)oxy)methyl)benzonitrile], in assay [1], the MIC was not above 0.5 µg/mL. Further, in assay [2], the pest or weed control at 50 ppm was 80 to 100%.

Take `N#Cc1cc(COc2ccc(C(F)(F)C(O)(Cn3cnnn3)c3ccc(F)cc3F)nc2)ccc1F` (centres unmarked) [Compound 65, 5-(((6-(2-(2,4-Difluorophenyl)-1,1-difluoro-2-hydroxy-3-(1H-tetrazol-1-yl)propyl)pyridin-3-yl)oxy)methyl)-2-fluorobenzonitrile]: the MIC in assay [1] was not above 0.5 µg/mL. The pest or weed control at 50 ppm in assay [2] lay in the range of 80 to 100%.

On to `N#Cc1ccc(Oc2ccc(C(F)(F)C(O)(Cn3cnnn3)c3ccc(F)cc3F)nc2)cc1F` (centres unmarked) [Compound 17, 4-((6-(2-(2,4-Difluorophenyl)-1,1-difluoro-2-hydroxy-3-(1H-tetrazol-1-yl)propyl)pyridin-3-yl)oxy)-2-fluorobenzonitrile], for which the MIC in assay [1] was not above 0.5 µg/mL. Also, the pest or weed control at 50 ppm in assay [2] lay in the range of 80 to 100%.

Turning to `OC(Cn1cnnn1)(c1ccc(F)cc1F)C(F)(F)c1ccc(OCc2ccc(Cl)cc2F)cn1` (centres unmarked) [Compound 1, 1-(5-(4-Chloro-2-fluorobenzyloxy)pyridin-2-yl)-2-(2,4-difluorophenyl)-1,1-difluoro-3-(1H-tetrazol-1-yl)propan-2-ol], the MIC in assay [1] is not above 0.5 µg/mL. In addition, in assay [2], the pest or weed control at 50 ppm was in the range of 80 to 100%.

As to `OC(Cn1cnnn1)(c1ccc(F)cc1F)C(F)(F)c1ccc(Oc2ccccc2F)cn1` (centres unmarked) [Compound 88, 2-(2,4-Difluorophenyl)-1,1-difluoro-1-(5-(2-fluorophenoxy)pyridin-2-yl)-3-(1H-tetrazol-1-yl)propan-2-ol], the MIC in assay [1] is not above 0.5 µg/mL. For the same molecule, the pest or weed control at 50 ppm in assay [2] was 80 to 100%.

Consider `OC(Cn1cnnn1)(c1ccc(F)cc1F)C(F)(F)c1ccc(OCC(F)(F)c2ccc(Cl)cc2)cn1` (centres unmarked) [Compound 122, 1-(5-(2-(4-chlorophenyl)-2,2-difluoroethoxy)pyridin-2-yl)-2-(2,4-difluorophenyl)-1,1-difluoro-3-(1H-tetrazol-1-yl)propan-2-ol], for which the MIC in assay [1] is not above 0.5 µg/mL. Besides, the pest or weed control at 50 ppm in assay [2] fell in the range of 80 to 100%.

Take `OC(Cn1cnnn1)(c1ccc(F)cc1F)C(F)(F)c1ccc(OCc2ccc(C(F)(F)F)cc2F)cn1` (centres unmarked) [Compound 24, 2-(2,4-Difluorophenyl)-1,1-difluoro-1-(5-((2-fluoro-4-(trifluoromethyl)benzyl)oxy)pyridin-2-yl)-3-(1H-tetrazol-1-yl)propan-2-ol]: the minimal inhibitory concentration (MIC) in assay [1] is not above 0.5 µg/mL. In addition, in assay [2], the pest or weed control at 50 ppm was 80 to 100%.

With `COc1ccc(C(F)(F)C(O)(Cn2cnnn2)c2ccc(F)cc2F)nc1` (centres unmarked) [Compound 8, 2-(2,4-Difluorophenyl)-1,1-difluoro-1-(5-methoxypyridin-2-yl)-3-(1H-tetrazol-1-yl)propan-2-ol], in assay [1], the MIC was 0.5 to 1.5 µg/mL (≈ 1.3 to 3.91 µM). Also, the pest or weed control at 50 ppm in assay [2] lay within 80 to 100%.

For the molecule `OC(Cn1cnnn1)(c1ccc(F)cc1F)C(F)(F)c1ccc(OCc2ccc(Cl)c(F)c2)cn1` (centres unmarked) [Compound 27, 1-(5-((4-Chloro-3-fluorobenzyl)oxy)pyridin-2-yl)-2-(2,4-difluorophenyl)-1,1-difluoro-3-(1H-tetrazol-1-yl)propan-2-ol], the MIC in assay [1] was not above 0.5 µg/mL. For the same molecule, the pest or weed control at 50 ppm in assay [2] is 80 to 100%.

Take `OC(Cn1cnnn1)(c1ccc(F)cc1F)C(F)(F)c1ccc(Oc2ccc(OC(F)(F)F)cc2)cn1` (centres unmarked) [Compound 76, 2-(2,4-Difluorophenyl)-1,1-difluoro-3-(1H-tetrazol-1-yl)-1-(5-(4-(trifluoromethoxy)phenoxy)pyridin-2-yl)propan-2-ol]: the MIC in assay [1] is not above 0.5 µg/mL. The pest or weed control at 50 ppm in assay [2] was in the range of 80 to 100%.

As for `OC(Cn1cnnn1)(c1ccc(F)cc1F)C(F)(F)c1ccc(Oc2ncc(C(F)(F)F)cc2Cl)cn1` (centres unmarked) [Compound 92, 1-(5-((3-chloro-5-(trifluoromethyl)pyridin-2-yl)oxy)pyridin-2-yl)-2-(2,4-difluorophenyl)-1,1-difluoro-3-(1H-tetrazol-1-yl)propan-2-ol], the MIC in assay [1] was not above 0.5 µg/mL. In addition, the pest or weed control at 50 ppm in assay [2] was in the range of 80 to 100%.

`N#Cc1cccc(COc2ccc(C(F)(F)C(O)(Cn3cnnn3)c3ccc(F)cc3F)nc2)c1` (centres unmarked) [Compound 52, 3-(((6-(2-(2,4-Difluorophenyl)-1,1-difluoro-2-hydroxy-3-(1H-tetrazol-1-yl)propyl)pyridin-3-yl)oxy)methyl)benzonitrile]: in assay [1], the MIC was not above 0.5 µg/mL. Also, the pest or weed control at 50 ppm in assay [2] was in the range of 80 to 100%.

In the case of `OC(Cn1cnnn1)(c1ccc(F)cc1F)C(F)(F)c1ccc(Oc2ncc(Cl)cn2)cn1` (centres unmarked) [Compound 98, 1-(5-((5-chloropyrimidin-2-yl)oxy)pyridin-2-yl)-2-(2,4-difluorophenyl)-1,1-difluoro-3-(1H-tetrazol-1-yl)propan-2-ol], in assay [1], the minimum inhibitory concentration (MIC) was not above 0.5 µg/mL. Besides, in assay [2], the pest or weed control at 50 ppm lay within 80 to 100%.

In the case of `OC(Cn1cnnn1)(c1ccc(F)cc1F)C(F)(F)c1ccc(Oc2ccc(F)cc2)cn1` (centres unmarked) [Compound 6, 2-(2,4-Difluorophenyl)-1,1-difluoro-1-(5-(4-fluorophenoxy)pyridin-2-yl)-3-(1H-tetrazol-1-yl)propan-2-ol], the MIC in assay [1] was not above 0.5 µg/mL. In addition, the pest or weed control at 50 ppm in assay [2] lay in the range of 80 to 100%.
